Structures can show the parent of a compound that is named as a salt.

Holding throughout (format): cell-based
One assay concerns Klebsiella aerogenes A. Description: MIC against Klebsiella aerogenes A. The source says: (§1) The antibiotic compounds of the present invention are active against a wide range of gram negative and gram positive organisms including E. coli such as, for example ESS, JT4, JT425 and NCTC 10418; Pseudomonas Spp. such as Ps.aeruginosa for example 10622 and Dalgleish; Serratia marcescens US32; Klebsiella aerogenes A; Enterobacter cloacae N1; P.mirabilis such as, for example C977 and 889; P.morganii, P.rettgeri; B.subtilis; Staph. aureus such as, for example Oxford and Russell; N.catarrhalis 1502; Strep faecalis I; β-Haemolytic Strep CN10. The MIC data included in the following examples is representative of the activity of the compounds of the present invention.

A further assay deals with P. mirabilis 899. Description: MIC against P. mirabilis 899. The conditions noted are these: Proteus mirabilis.
From the text: as §1

Another assay has as its system Proteus mirabilis 889. As to the kind of experiment: MIC against Proteus mirabilis 889.
From the text: as §1

Turning to `CCN1CCN(C(=O)NC(C(=O)N[C@@H]2C(=O)N3[C@@H]2SC(C)(C)[C@@H]3C(=O)O)c2cc(O)c(O)cc2Cl)C(=O)C1=O` (stereo partly drawn) [Example 1, Sodium 6,β-[D,L-2-(2-chloro-4,5-dihydroxyphenyl)-2-(2,3-dioxo-4-ethylpiperazin-1-ylcarbonylamino)acetamido penicillanate], the minimum inhibitory concentration (MIC) against Klebsiella aerogenes A was < 0.06 µg/mL.
On to `CCN1CCN(C(=O)N[C@@H](C(=O)N[C@]2(NC=O)C(=O)N3C(C(=O)O)=C(COC(C)=O)CS[C@@H]32)c2cc(OC(C)=O)c(OC(C)=O)cc2F)C(=O)C1=O` [Example 17, 7β[D-2-(4,5-Diacetoxy-2-fluorophenyl)-2-[(4-ethyl-2,3-dioxopiperazin-1-yl)carbonylamino]acetamido]-7α-formamidocephalosporanate, sodium salt], for which, in the assay with P. mirabilis 899, the MIC is 0.5 µg/mL.
With `CCN1CCN(C(=O)N[C@@H](C(=O)N[C@]2(NC=O)C(=O)N3[C@@H](C(=O)O)C(C)(C)S[C@@H]32)c2cc(OC(C)=O)c(OC(C)=O)cc2Cl)C(=O)C1=O` [Example 6], the minimum inhibitory concentration (MIC) in the assay on Proteus mirabilis 889 was < 0.06 µg/mL.
The compound `CCN1CCN(C(=O)N[C@@H](C(=O)N[C@@H]2C(=O)N3[C@@H]2SC(C)(C)[C@@H]3C(=O)O)c2cc(O)c(O)cc2F)C(=O)C1=O` [Example 11, Sodium 6,β-[D-2-(4,5-dihydroxy-2-fluorophenyl)-2-(2,3-dioxo-4-ethylpiperazin-1-ylcarbonylamino)acetamido]penicillanate] yielded an MIC in the assay on Klebsiella aerogenes A of 1 µg/mL.
With `CCN1CCN(C(=O)NC(C(=O)N[C@@H]2C(=O)N3[C@@H](C(=O)O)CS[C@H]23)c2cc(OC(C)=O)c(OC(C)=O)cc2Cl)C(=O)C1=O` (stereo partly drawn) [Example 2, Sodium 6,β[D,L-2-(2-chloro-4,5-diacetoxyphenyl)-2-(2,3-dioxo-4-ethylpiperazin-1-ylcarbonylamino)acetamido]bisnorpeniclllanate], the MIC against Klebsiella aerogenes A was < 0.06 µg/mL.
With `CCN1CCN(C(=O)N[C@@H](C(=O)N[C@]2(NC=O)C(=O)N3[C@@H](C(=O)O)C(C)(C)S[C@@H]32)c2cc(OC(C)=O)c(OC(C)=O)cc2F)C(=O)C1=O` [Example 8, Sodium 6,β-[D-2-(4,5-diacetoxy-2-fluorophenyl)-2-(2,3-dioxo-4-ethylpiperazin-1-ylcarbonylamino)acetamido]-6,α-formamidopenicillanate], the minimal inhibitory concentration (MIC) with Proteus mirabilis 889 is < 0.06 µg/mL.
Take `CCN1CCN(C(=O)N[C@@H](C(=O)N[C@]2(NC=O)C(=O)N3C(C(=O)O)=C(CSc4nnnn4C)CS[C@@H]32)c2cc(OC(C)=O)c(OC(C)=O)cc2Cl)C(=O)C1=O` [Example 15, 7β-[D-2-(2-Chloro-4,5-diacetoxyphenyl)-2-[(4-ethyl-2,3-dioxopiperazin-1-yl)carbonylamino]acetamido]-7α-formamido-3-[(1-methyl-1H-tetrazol-5-yl)thiomethyl]ceph-3-em-4-carboxylic acid, sodium salt]: the MIC against Proteus mirabilis 889 is 0.06 µg/mL.
Consider `CCN1CCN(C(=O)N[C@@H](C(=O)N[C@]2(NC=O)C(=O)N3C(C(=O)O)=C(COC(C)=O)CS[C@@H]32)c2cc(OC(C)=O)c(OC(C)=O)cc2Br)C(=O)C1=O` [Example 13, 7β[D-2-(2-Bromo-4,5-diacetoxyphenyl)-2-[(4-ethyl-2,3-dioxopiperazin-1-yl)carbonylamino]acetamido]-7α-formamidocephalosporanate, sodium salt], for which inhibition of growth in the assay with P. mirabilis 899 (MIC) required 0.25 µg/mL.
For `CCN1CCN(C(=O)N[C@@H](C(=O)N[C@]2(NC=O)C(=O)N3C(C(=O)O)=C(COC(C)=O)CS[C@@H]32)c2cc(OC(C)=O)c(OC(C)=O)cc2Cl)C(=O)C1=O` [Example 14, 7β-[D-2-(2-chloro-4,5-diacetoxyphenyl)-2-[(4-ethyl-2,3-dioxopiperazin-1-yl)carbonylamino]acetamido]-7α-formamidocephalosporanate, sodium salt], in the assay with Proteus mirabilis 889, the MIC was < 0.06 µg/mL.
On the same count and under the same terms, to `CCN1CCN(C(=O)NC(C(=O)N[C@]2(OC)C(=O)N3[C@@H](C(=O)O)C(C)(C)S[C@@H]32)c2cc(OC(C)=O)c(OC(C)=O)cc2Cl)C(=O)C1=O` (stereo partly drawn) [Example 4, Sodium 6,β-[D,L-2-(2-chloro-4,5-diacetoxyphenyl)-2-(2,3-dioxo-4-ethylpiperazin-1-ylcarbonylamino)acetamido]-6,α-methoxypenicillanate] belongs 4 µg/mL.
With `CCN1CCN(C(=O)NC(C(=O)N[C@@H]2C(=O)N3[C@@H]2SC(C)(C)[C@@H]3C(=O)O)c2cc(OC(C)=O)c(OC(C)=O)cc2Br)C(=O)C1=O` (stereo partly drawn) [Example 10, Sodium 6,β-[D,L-2-(2-bromo-4,5-diacetoxyphenyl)-2-(2,3-dioxo-4-ethylpiperazin-1-ylcarbonylamino)acetamido]penicillanate], in the assay on Klebsiella aerogenes A, the minimal inhibitory concentration (MIC) worked out at 1 µg/mL.
Consider `CCN1CCN(C(=O)N[C@@H](C(=O)N[C@@H]2C(=O)N3[C@@H]2SC(C)(C)[C@@H]3C(=O)O)c2cc(OC(C)=O)c(OC(C)=O)cc2Cl)C(=O)C1=O` [Example 9, Sodium 6,β-[D-2-(2-chloro-4,5-diacetoxyphenyl)-2-(2,3-dioxo-4-ethylpiperazin-1-ylcarbonylamino)acetamido]penicillanate], for which, in the assay on Klebsiella aerogenes A, the MIC stood at 0.25 µg/mL.
For the compound `CCN1CCN(C(=O)N[C@@H](C(=O)N[C@]2(NC=O)C(=O)N3[C@@H](C(=O)O)C(C)(C)S[C@@H]32)c2cc(O)c(O)cc2F)C(=O)C1=O` [Example 16, Sodium 6,β-[D-2-(4,5-dihydroxy-2-fluorophenyl)-2-(2,3-dioxo-4-ethylpiperazin-1-ylcarbonylamino)acetamido]-6,α-formamidopenicillanate], in the assay on Proteus mirabilis 889, the minimum inhibitory concentration (MIC) turned out to be 0.25 µg/mL.
Same read-out and setting: to `CCN1CCN(C(=O)NC(C(=O)N[C@]2(NC=O)C(=O)N3[C@@H](C(=O)O)C(C)(C)S[C@@H]32)c2cc(OC(C)=O)c(OC(C)=O)cc2Cl)C(=O)C1=O` (stereo partly drawn) [Example 5, Sodium 6,β-[D,L-2-(2-chloro-4,5-diacetoxyphenyl)-2-(2,3-dioxo-4-ethylpiperazin-1-ylcarbonylamino)acetamido]-6,α-formamidopenicillanate] belongs < 0.06 µg/mL.
In the assay on Klebsiella aerogenes A, `CCN1CCN(C(=O)NC(C(=O)N[C@@H]2C(=O)N3[C@@H]2SC(C)(C)[C@@H]3C(=O)O)c2cc(OC(C)=O)c(OC(C)=O)cc2F)C(=O)C1=O` (stereo partly drawn) [Example 7, Sodium 6,β-[D,L-2-(4,5-diacetoxy-2-fluorophenyl)-2-(2,3-dioxo-4-ethylpiperazin-1-ylcarbonylamino)acetamido]penicillanate] showed an MIC of 0.5 µg/mL.

Values taken from patent US4684639A, “Antibacterial penicillins and cephalosporins” (Beecham Group, priority 1983, dated 1987).
